# Data: a melting point compilation (Tetko et al.; mined from patent text by program, amines drawn as free bases though some values may be those of a salt)
row,Structure (SMILES),melting point [°C]
1,COC(=O)c1nc(-c2ccc(Cl)cc2F)nc(N)c1Cl,194 to 196
2,COc1cc(C#Cc2cnc(N)nc2N)cc(OC)c1OC,202 to 204
3,C#CCOC(=O)C1=C(C)NN=C(CC)C1c1cccc([N+](=O)[O-])c1 (configuration not stated),70
4,CC(C)(C)c1cc(C(=O)Cl)cc(C(C)(C)C)c1O,90 to 93
5,CCOC(=O)CC(C#N)(CC(=O)OCC)c1ccc(OC)cc1,65 to 75
6,CON=CCCCn1c(C)nc2c(N)nc3ccccc3c21,153 to 155
7,CC(Br)c1nc2ccccc2c(=O)n1-c1ccc(F)cc1 (configuration not stated),180
8,CCCCCCCNC(=O)N(C)c1cccc(-c2ccc(C=C(OC)C(=O)O)cc2OCCCC)c1,99
9,CCCCc1nc2c(c(C)c(C)n3nnnc23)n1CC(C)(C)NS(C)(=O)=O,75 to 90
10,COc1cc2c(cc1OC)-c1cc(=O)n(C(C)C)c(=O)n1CC2,190 to 192
11,Cc1cccc2c1C(=O)N1CC[C@H]1c1c(C(=O)OC(C)(C)C)ncn1-2,191 to 192
12,CC(=O)N1CCC(c2cc(F)c(C(=O)O)cc2F)CC1,206 to 207
13,CC(C)C(=O)c1ccc(OCc2ccc(CNC(=O)c3cn(C)cn3)cc2)c(C(F)(F)F)c1O,165
14,O=C(Nc1ccc(CN2CCCCC2)cc1)c1cccc(OCc2ccccc2)c1,137 to 138
15,COC(=O)CC(NC(C)=O)c1ccccc1 (configuration not stated),58 to 67
16,CC(C)(C)OC(=O)N1CCC(C(=O)O)(C2CCCCC2)CC1,156
17,COc1cc(NC(N)=S)cc(OC)c1OC,203 to 205
18,Cc1[nH]cc2c(=O)n(-c3ccc(Cl)cc3)nc-2c1-c1cccc(-n2cnnc2)c1,> 350
19,CCOc1cc2c(c3c1OC(C)(C)C3)C(c1cccc(C(=O)NC)c1)=NC(C)(C)C2,173 to 174
20,C[C@@H](n1cnc2cc(N)ccc2c1=O)[C@](O)(Cn1cncn1)c1ccc(F)cc1F,103 to 109
21,N#CCCCCn1ccc(NC(=S)NCC(F)(F)F)n1,96 to 98
22,CC(C)c1cccc(F)c1NC(=S)N/N=C/c1ccc(-c2ncn(-c3ccc(OC(F)(F)F)cc3)n2)cc1,210 to 212
23,COc1ccc(Nc2nc(NC3CCCCCC3)nc(N(C)C3CCN(C)CC3)n2)cc1Cl,173 to 176
24,Cc1cc2c(Cl)cc(F)c(-n3c(=O)cc(C(F)(F)F)n(C)c3=O)c2o1,196 to 197
25,O=C1NC(=O)c2c1c(-c1ccccc1Cl)cc1c2c(Cl)c(CO)n1CCCO,218 to 219
26,CCCC(=O)Nc1n[nH]c2cc(Cl)c(-c3ccc(OCc4ccccc4)cc3)cc12,230

# Next, values leading:
row,melting point [°C],Structure (SMILES)
1,101 to 104,O=C(c1cccs1)c1cnn2c(-c3cccc(NCC4CCCCC4)c3)ccnc12
2,> 250,COc1ccc2nc(-c3nc(N)nc(N)n3)sc2c1
3,84 to 85,C=Cc1c(CC)nc(CC)c(CO)c1-c1ccccc1
4,112 to 113,O=C(CCc1cnoc1-c1ccccc1)Nc1ccc2ccccc2n1
5,155 to 156,Cn1cnc(=O)c(-c2cccc(C(F)(F)F)c2)c1
6,120 to 121,CC(=NO)C1(c2ccc(Cl)c(Cl)c2)CCC1
7,61 to 62,CCCCCCOc1ccc(-c2ccccc2)cc1
8,187 to 189,COc1cc(OC)nc(Oc2ccc3ccccc3c2C(=O)O)n1
9,192 to 196,CC1=Nc2ccc(C)cc2C(O)(c2ccccc2)N1N (configuration not stated)
10,147 to 151,CC1CC2Oc3ccc(Cl)cc3C(=O)N2O1 (configuration not stated)
11,190 to 192,CCOC(=O)c1cnc(-c2ccc(OC)cc2OC)[nH]c1=O
12,100 to 104,O=C(O)CCC(Oc1cccc(OCc2ccccc2)c1)c1ccccc1 (racemic)
13,> 250,CCOC(=O)C(C)Oc1ccc(N(C)c2nc(Cl)c3cc(Cl)ccc3n2)cc1 (configuration not stated)
14,200 to 202,Cc1cn(N=Cc2cccnc2)c(=O)[nH]1
15,112 to 113,Clc1ccc(-c2nc3n(c2Br)CCCC3)c(Cl)c1
16,56 to 57,COC(=O)C(=O)c1ccc(Cl)cc1
17,265 to 267,N#Cc1ccc2c(c1)c1cc(C#N)ccc1n2Cc1ccccc1
18,135 to 136,N#Cc1ccc(-c2ccc(C(F)(F)F)cn2)cc1SCC1CC1
19,358,O=c1[nH]c2cc(Cl)ccc2c(O)c1-c1cccc(Br)c1
20,172 to 174,Nc1ccc(Br)c(-c2nc3ncccc3o2)c1
21,181 to 182,CSC(Nc1cccnc1)=C(C#N)S(=O)(=O)c1ccc(Cl)cc1
22,164,Ic1ccc(-c2ccc(I)s2)s1
23,131 to 134,CCOC(=O)C1=Cc2cc(-c3ccc(Cl)cc3)ccc2OCC1
24,112 to 115,OCC=C(c1ccccc1)c1ccccc1
25,118 to 119,CN(C)C=C(C(=O)c1cccc2c1OC(F)(F)O2)C(=O)C1CC1
26,53 to 55,COc1ccc(C(=O)c2cccc(OC)c2)cc1
